From patent CN101069680A, “2-羟基-4-甲基苯磺酸制剂的制备及其应用” (BEIJING HUARUI DINGXIN TECHNOLOGY Co Ltd, priority 2007, dated 2007)

Experiments:
[1] = tested on: Enterococcus faecalis 755 (粪肠球菌755); experiment: In vitro antibacterial effect, tube method; parameters: key to antibacterial effect: -: 有明显抑菌作用; +: 没有抑菌作用; conditions: 1% solution mixed with MH broth with 5% defibrinated sheep blood
[2] = tested on: Escherichia coli 26 (大肠埃希氏菌26); experiment: In vitro antibacterial effect, tube method; parameters: key to antibacterial effect: -: 有明显抑菌作用; +: 没有抑菌作用; conditions: 1% solution mixed with MH broth
[3] = tested on: Candida albicans 12 (白色念珠菌12); experiment: In vitro antibacterial effect, tube method; parameters: key: -: 有明显抑菌作用; +: 没有抑菌作用; conditions: 1% solution mixed with MH broth with 5% glucose, 37°C, 24 h
[4] = tested on: Candida albicans 6 (白色念珠菌6); experiment: In vitro antibacterial effect, tube method; parameters: key: -: 有明显抑菌作用; +: 没有抑菌作用; conditions: 1% solution mixed with MH broth with 5% glucose, 37°C, 24 h
[5] = tested on: Candida albicans 10 (白色念珠菌10); experiment: In vitro antibacterial effect, tube method; parameters: key: -: 有明显抑菌作用; +: 没有抑菌作用; conditions: 1% solution mixed with MH broth with 5% glucose, 37°C, 24 h
[6] = tested on: Staphylococcus epidermidis 26069 (表葡菌26069); experiment: In vitro antibacterial effect, tube method; parameters: key to antibacterial effect: -: 有明显抑菌作用; +: 没有抑菌作用; conditions: 1% solution mixed with MH broth
[7] = tested on: Staphylococcus aureus 9776 (金葡菌9776); experiment: In vitro antibacterial effect, tube method; parameters: key to antibacterial effect: -: 有明显抑菌作用; +: 没有抑菌作用; conditions: 1% solution mixed with MH broth
[8] = tested on: cervical erosion model rats (宫颈糜烂模型大鼠); experiment: Therapeutic effect on cervical erosion model rats: body weight, vagina and cervix weight index, white blood cell count; format: in vivo, rat; conditions: intravaginal, 12 days, positive control 0.02 g/kg, Example 2 gel 0.1048 g/kg
[9] = tested on: Candida albicans 2 (白色念珠菌2); experiment: In vitro antibacterial effect, tube method; parameters: key: -: 有明显抑菌作用; +: 没有抑菌作用; conditions: 1% solution mixed with MH broth with 5% glucose, 37°C, 24 h
[10] = tested on: beta-hemolytic streptococcus 96 (乙型链球菌96); experiment: In vitro antibacterial effect, tube method; parameters: key to antibacterial effect: -: 有明显抑菌作用; +: 没有抑菌作用; conditions: 1% solution mixed with MH broth with 5% defibrinated sheep blood
[11] = tested on: cervical erosion model rats (宫颈糜烂模型大鼠); experiment: Therapeutic effect on cervical erosion model rats: degree of cervical inflammation / pathology; format: in vivo, rat; conditions: intravaginal, 12 days, positive control 0.02 g/kg, Example 2 gel 0.1048 g/kg
egg white (蛋清) = experiment: Astringent / coagulating effect on protein (precipitation of egg white); parameters: key to protein precipitation: -: 未见白色沉淀; +: 隐约可见白色沉淀; +: 有少量白色沉淀; ++: 有较多白色沉淀; +++: 有大量白色沉淀; conditions: for protein precipitation: 0.2 ml added to 5 ml of 5% egg white
Candida albicans (白色念珠菌) = experiment: In vitro antibacterial effect, tube method (summary for the selected strains); conditions: 1% solution mixed with MH broth
[12] = number of rats out of 8 per group

Cc1ccc(S(=O)(=O)O)c(O)c1 [2-羟基-4-甲基苯磺酸]
antibacterial effect (in words) [1]: 没有抑菌作用
antibacterial effect ([1]; 37°C, 24 h): +
inhibitory effect (in words) [2]: 有明显的抑制作用
antibacterial effect ([2]; 37°C, 24 h): -
antibacterial effect [3]: -
antibacterial effect [4]: -
antibacterial effect [5]: -
inhibitory effect (in words) [6]: 有明显的抑制作用
antibacterial effect ([6]; 37°C, 24 h): -
inhibitory effect (in words) [7]: 有明显的抑制作用
antibacterial effect ([7]; 37°C, 24 h): -
body weight after test ([8]; 1 h after last dose, *P<0.05 vs model): 249.6 ± 26.7 g
total white blood cell count ([8]; blood, after last dose, *P<0.05, **p<0.01 vs model): 5.74±0.88 10^9g/L
vagina and cervix weight index ([8]; *P<0.05 vs model): 0.268±0.102 g/100g body weight
antibacterial effect [9]: -
antibacterial effect (in words) [10]: 没有抑菌作用
antibacterial effect ([10]; 37°C, 24 h): +
Ridit test u value ([11]; inflammation grade vs model group, * = significant difference): 2.8146
inflammation degree grade: mild [11, 12]: 2
inflammation degree grade: moderate [11, 12]: 1
inflammation degree grade: normal [11, 12]: 4
inflammation degree grade: severe [11, 12]: 1
threshold concentration for astringent coagulating effect on protein (egg white (蛋清); concentration of the added solution): 0.39%
astringent coagulating effect compared with tannic acid (egg white (蛋清); same concentration): 弱于同浓度的鞣酸
protein precipitation (egg white (蛋清); test substance solution 0.098% (tube 10)): -
protein precipitation (egg white (蛋清); test substance solution 0.195% (tube 9)): -
protein precipitation (egg white (蛋清); test substance solution 0.78% (tube 7)): +
protein precipitation (egg white (蛋清); test substance solution 1.56% (tube 6)): +
protein precipitation (egg white (蛋清); test substance solution 3.125% (tube 5)): ++
protein precipitation (egg white (蛋清); test substance solution 6.25% (tube 4)): +++
protein precipitation (egg white (蛋清); test substance solution 12.5% (tube 3)): +++
protein precipitation (egg white (蛋清); test substance solution 25% (tube 2)): +++
protein precipitation (egg white (蛋清); test substance solution 50% (tube 1)): +++
inhibitory effect (in words) (Candida albicans (白色念珠菌)): 有明显的抑制作用
